Like-named read-outs stand apart in the source and are kept apart here.
How the values were obtained:
[1] = cited from earlier work
[2] = Emulsion droplet average size by Dynamic Light Scattering; type: physicochemical; conditions: named Span as co-surfactant; 1 g cannabinoid, 0.625 g olive oil, 3.75 g Tween 80, Span:Tween 80 1:6; 45 mL; 80% amplitude sonication until plateau; DLS
Experimental: Droplet size change was monitored by DLS time wise.
Sometimes, measuring concentrated nano-emulsion (>10 mg/g) by Dynamic Light Scattering could have misleading data. Since at higher concentration, the emulsion droplets pack close to each other and may generate unreal scattering pattern. […] While the nanosized droplets are a preferred embodiment of the instant application, larger sized droplets are contemplated as well. Sometimes, larger size emulsion is generated by design to achieve desirable effects.
As is generally known in the art, droplet sizes and their distribution may affect the human feeling on flavor. On one side, nano-size can amplify or even alter the taste, something tastes plain at bulk may taste bitter or sour in nano-scale. On the other side, taste buds on tongue tend to have different time reactions to different sizes of particles. The smaller droplets can quickly absorb at the gap of the tasting buds, thus blocking the touching/feeling from bigger droplets. The droplet size can be well controlled by how much energy is put into the liquid system, which can be controlled either by amplitude % of the sonicator or by how long the liquid is being sonicated at certain amplitude %.
The sonicator continuously calibrates itself to ensure consistent output. A commercially available sonicator may be used to make the compositions disclosed herein. The wattage of such a sonicator may vary from 250 W to about 800 W, and more preferably between about 350 W to about 650 W, and most preferably between 450 W to about 550 W. The output energy depends on the viscosity of the emulsion and also temperature. […] Processing amplitude are adjustable, and it is within a linear relation with intensity. And process time can also be adjustable, which will determine total input energy under certain intensity. Since each formula may need different amount of energy to get into nanosize, we usually monitor droplet size change with Dynamic Light Scattering over production time to determine when to stop the sonication.
1 g of cannabis and 5 g of the Formula 1 are added to a 100 ml beaker, and mechanically stirred under controlled heat (<60° C.), until it is well mixed. The cannabis oil may be a full plant extract or a high pure distillate. Water is added to the mixture, the amount of water is determined by the final targeting concentration. The mixture is kept stirring until a homogenous milky coarse emulsion is formed.

[3] = Span surfactants, Example 9 table
[4] = Table 1, HLB=20*Mh/M, scale 0 to 20

Substance	HLB [1, 3]	Final Emulsion droplet average size (nm) [2] [nm]	HLB [1, 4]
Span 120	4.7	302	
Span 85		876	
Span 40	6.7	245	
Tween 81			10
polyglyceryl-6 oleate			9
Polyglyceryl-6 Stearate			9
Span 60	4.7	316	
Span 80	4.3	387	
Span 83		560	
Span 20		91	

Reference: patent publication US11013715B2, “Nanoemulsion hydrophobic substances” (Vertosa, Inc., priority 2018, dated 2021)
